Test results from patent US20030187261A1, “Purine derivatives, process for their preparation and use thereof” (priority 2000, published 2003).

How the values were obtained:
IκB-α = IκB-α kinase-inhibitory activity; assay type: biochemical
Source text: Modification of 2,6,9-trisubstituted purines by a catechol-like substituent at R6 leads to an increase in cdk inhibitory activity of the tested compounds.

CDC2 = target: T1, CDC2 (Homo sapiens, UniProt P06493); assay: p34cdc2 (CDC2) kinase inhibition assay, histone H1 substrate; assay type: biochemical
T1 construct: made in house; host or cells: Sf9 insect cells, baculovirus co-infection
Procedure: Cyclin-dependent kinases (p34^cdc2, p33^cdk2, p33^cdk4 and cyclins (cyclin B, E and DI) are produced in Sf9 insect cells coinfected with appropriate baculoviral constructs. The cells are harvested 68-72 hrs post infection in lysis buffer for 30 min on ice and the soluble fraction is recovered by centrifugation at 14.000 g for 10 min. The protein extract is stored at −80° C.
To carry out experiments on kinetics under linear conditions, the final point test system for kinase activity measurement is used. The kinase is added to the reaction mixture in such a way that linear activity is obtained with respect to the concentration of enzyme and with respect to time.
Inhibition of p33^cdk4 kinase is determined with Rb-GST (0.2 mg/ml) as the substrate. Kinase activity is determined at 30° C. in kinase buffer.
Tested compounds are usually dissolved to 100 mM solutions in DMSO, the final concentration of DMSO in reaction mixture never exceeds 1%. The controls contain suitable dilutions of DMSO. After 10 min, the addition of 3×SDS sample buffer stops the incubations. […] The measurement of kinase activity is done using digital image analysis. The kinase activity is expressed as a percentage of maximum activity, the apparent inhibition constants are determined by graphic analysis. Kinase buffer: 50 mM Hepes pH 7.4, 10 mM MgCl21 5 mM EGTA, 10 mM 2-glycerolphosphate,

[1] = system: T-lymphoblastic leukemia cell line CEM; assay: MTT cytotoxicity assay, CEM; assay type: cell-based, human; settings: 72 hours (TCS50 in the method)
Source text: (§1) One of the parameters used as the basis for colorimetric assays is the metabolic activity of viable cells. For example, a microtiter assay, which uses the tetrazolium salt MTT, is now widely used to quantitate cell proliferation and cytotoxicity. For instance, this assay is used in drug screening programs and in chemosensitivity testing. Because only metabolically active cells cleave tetrazolium salts, these assays detect viable cells exclusively. In the case of MTT assay, yellow soluble tetrazolium salt is reduced to coloured water-insoluble formazan salt. After it is solubilized, the formazan formed can easily and rapidly be quantified in a conventional ELISA plate reader at 570 nm (maximum absorbance). The quantity of reduced formazan corresponds to number of vital cells in the culture. Human T-lymphoblastic leukemia cell line CEM; promyelocytic HL-60 and monocytic U937 leukemias; breast carcinoma cell lines MCF-7, BT549, MDA-MB-231; glioblastoma U87MG cells; cervical carcinoma cells HELA; sarcoma cells U20S and Saos2; hepatocellular carcinoma HepG2; mouse immortalized bone marrow macrophages B2.4 and B10A.4; P388D1 and L1210 leukemia; B16 and B16F10 melanomas were used for routine screening of the compounds according to the invention. The cells were maintained in Nunc/Corning 80 cm^2 plastic tissue culture flasks and cultured in cell culture medium (DMEM with 5 g/l glucose, 2 mM glutamine, 100 U/ml penicillin, 100 μg/ml streptomycin, 10% fetal calf serum and sodium bicarbonate).
(§2) The cell suspensions that were prepared and diluted according to the particular cell type and the, expected target cell density (2500-30000 cells per well based on cell growth characteristics) were added by pipette (80 μl) into 96-well microtiter plates. Inoculates were allowed a pre-incubation period of 24 hours at 37° C. and 5% CO2 for stabilisation. Four-fold dilutions of the intended test concentration were added at time zero in 20 μl aliquots to the microtiter plate wells. Usually, test compound was evaluated at six 4-fold dilutions. In routine testing, the highest well concentration was 266.7 μM, but it can be the matter of change dependent on the agent. All drug concentrations were examined in duplicates. Incubations of cells with the test compounds lasted for 72 hours at 37° C., in 5% CO2 atmosphere and 100% humidity. At the end of incubation period, the cells were assayed by using the MTT. Ten microliters of the MTT stock solution were pipetted into each well and incubated further for 1-4 hours. After this incubation period, formazan was solubilized by addition of 100 μl/well of 10% SDS in water (pH=5.5) followed by further incubation at 37° C. overnight. The optical density (OD) was measured at 540 nm with the Labsystem iEMS Reader MF (UK). The tumour cell survival (TCS) was calculated using the following equation: TCS=(ODdrug exposed well/mean ODcontrol wells)×100%. The TCS50 value, the drug concentration lethal to 50% of the tumour cells, was calculated from the obtained dose response curves.
(§3) The cytoxicity of novel compounds was tested on panel of cell lines of different histogenetic and species origin (Table 7). Equal activities were found in all tumour cell lines tested. […] Importantly, this observation distinguishes the purine derivatives of the invention from flavopiridol and related compounds, as their biological activity is dependent on p53 status.

B16 melanoma = assay: MTT cytotoxicity assay, B16; assay type: cell-based, mouse; settings: 72 hours (TCS50 in the method)
Source text: as §1, §2, §3

normal human lymphocytes = assay: concanavalin A induced lymphocyte proliferation, [3H]-TdR incorporation; assay type: cell-based; settings: 72 hours, read-out: ED50 (the source's name)
Procedure: Human heparinized peripheral blood was obtained from healthy volunteers by cubital vein punction. The blood was diluted in PBS (1:3) and mononuclear cells were separated by centrifugation in Ficoll-Hypaque density gradient (Pharmacia, 1.077 g/ml) at 2200 rpm for 30 minutes. Following centrifugation, lymphocytes were washed in PBS and resuspended in cell culture medium (RMPI 1640, 2 mM glutamine, 100 U/ml penicillin, 100 μg/ml streptomycin, 10% fetal calf serum and sodium bicarbonate).
The cells were diluted at target density of 1100000 cells/ml and were added by pipette (180 μl) into 96/well microtiter plates. Four-fold dilutions of the intended test concentration were added at time zero in 20 μl aliquots to the microtiter plate wells. Usually, test compound was evaluated at six 4-fold dilutions. In routine testing, the highest well concentration was 266.7 μM. All drug concentrations were examined in duplicates. All wells with exception of unstimulated controls were activated with 50 μl of concanavalin A (25 μg/ml). Incubations of cells with test compounds lasted for 72 hours at 37° C., in 5% CO2 atmosphere and 100% humidity. At the end of incubation period, the cells were assayed by using the [^3H]-TdR:
Cell cultures were incubated with […] (20 μl of stock solution 500 μCi/ml) per well for 6 hours at 37° C. and 5% CO2. The automated cell harvester was used to lyse cells in water and adsorb the DNA onto glass-fiber filters in the format of microtiter plate. The DNA incorporated [^3H]-TdR was retained on the filter while unincorporated material passes through. The filters were dried at room temperature overnight, sealed into a sample bag with 10-12 ml of scintillant. The amount of [^3H]-TdR present in each filter (in cpm) was determined by scintillation counting in a Betaplate liquid scintillation counter. The effective dose of immunosuppressant (ED) was calculated using the following equation: ED=(cpmdrug exposed well/mean cpmcontrol wells)×100%. The EDs50 value, the drug concentration inhibiting proliferation of 50% of lymphocytes, was calculated from the obtained dose response curves.
To evaluate immunosuppressive activity of substituted adenines, their ability to inhibit polyclonal mitogen induced proliferation of normal human lymphocytes was analyzed (Table 8). […] Effective immunosuppressive dose of new derivatives under in vitro conditions was close to 1-20 μM.

β-adrenergic receptors = assay: isoproterenol-induced intracellular cAMP synthesis in rat C6 glioma; assay type: cell-based; settings: cAMP induced by 5 μM (−) isoproterenol, 30 min; for Effect: rat C6 glioma
Procedure: Rat C6 glioma (ATCC N° CCL107) was cultivated in monolayer in serum-free chemically defined medium containing Ham's F10/minimal essential medium (1:1 vol/vol), 2 mM L-glutamine, 1% (vol/vol) minimal essential medium vitamins (100×), 1% (vol/vol) minimal essential medium nonessential amino acids (100×), 100 U/ml penicillin, 100 μg/ml streptomycin and 30 nM sodium selenite. Incubation was at 37° C. in a humidified atmosphere. Assays were performed in the logaritmic growth phase at a density of 2.5×10^5 cells/cm^2. Intracellular cAMP synthesis was induced by addition of 5 μM (−) isoproterenol. After 30 min incubation at 37° C. the medium was removed and the cellular amount of cAMP determined using the cAMP-enzyme immunoassay kit of Amersham. The IC50 is determined from a dose-response curve in duplicate. The effect of seven purine-analogs was measured after simultaneous addition with isoproterenol.
As P2Y1-like and A2 purinergic receptors, negatively and positively coupled to adenylate cyclase respectively, are present on rat C6 glioma the modulation of the synthesis of cAMP may be due to inhibition of the activation of β-adrenergic receptors by isoproterenol or to activation of purinergic receptors.

T1 sequence (P06493 whole entry, species assumed): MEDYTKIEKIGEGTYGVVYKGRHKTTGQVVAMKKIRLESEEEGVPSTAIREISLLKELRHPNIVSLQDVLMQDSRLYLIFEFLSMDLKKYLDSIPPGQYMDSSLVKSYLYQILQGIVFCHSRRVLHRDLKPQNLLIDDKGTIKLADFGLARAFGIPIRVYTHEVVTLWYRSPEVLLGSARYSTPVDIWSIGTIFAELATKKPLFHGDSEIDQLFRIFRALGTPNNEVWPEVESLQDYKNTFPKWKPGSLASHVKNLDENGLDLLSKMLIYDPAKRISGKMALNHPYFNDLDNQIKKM
T1 sequence (P14635 whole entry partner, species assumed): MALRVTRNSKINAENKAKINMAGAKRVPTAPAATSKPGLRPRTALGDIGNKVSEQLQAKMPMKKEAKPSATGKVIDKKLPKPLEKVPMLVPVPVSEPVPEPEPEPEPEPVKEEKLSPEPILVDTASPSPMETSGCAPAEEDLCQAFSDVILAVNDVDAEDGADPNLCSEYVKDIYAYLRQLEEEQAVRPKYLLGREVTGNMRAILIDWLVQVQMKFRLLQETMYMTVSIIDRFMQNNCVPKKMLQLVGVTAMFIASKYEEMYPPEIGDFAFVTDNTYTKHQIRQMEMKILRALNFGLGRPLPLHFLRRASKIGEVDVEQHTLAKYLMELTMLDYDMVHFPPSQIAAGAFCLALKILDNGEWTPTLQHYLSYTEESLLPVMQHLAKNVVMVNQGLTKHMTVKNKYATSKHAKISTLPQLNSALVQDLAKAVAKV

SMILES | IC50 [1] | IC50 (B16 melanoma) | EC50 (normal human lymphocytes) | further results
CC(C)[C@H](CO)Nc1nc(NCc2ccc(O)c(O)c2)c2ncn(C(C)C)c2n1 | – | – | – | IC50 (IκB-α; Table 3, unit nM): 320 nM; IC50 (CDC2; Table 3, unit nM): 250 nM
CC(C)[C@H](CO)Nc1nc(N(C)CCc2ccc(O)c(O)c2)c2ncn(C(C)C)c2n1 | 8 µM | 9 µM | 0.54 µM | IC50 (IκB-α; Table 3, unit nM): 460 nM; IC50 (CDC2; Table 3, unit nM): 390 nM
CC(C)[C@H](CO)Nc1nc(NC(CO)c2ccccc2)c2ncn(C(C)C)c2n1 (stereo partly shown) | – | – | – | IC50 (IκB-α; Table 3, unit nM): 670 nM; IC50 (CDC2; Table 3, unit nM): 540 nM
Cn1cnc2c(NCc3ccc(O)c(O)c3)nc(NCCO)nc21 | – | – | – | IC50 (IκB-α; Table 3): 10800 nM; IC50 (CDC2; Table 3): 4200 nM
CC(C)n1cnc2c(N(C)CCc3ccc(O)c(O)c3)nc(NCCO)nc21 | 27 µM | 26 µM | 4 µM | –
CN(CCc1ccc(O)c(O)c1)c1nc(NCCO)nc2c1ncn2C | – | – | – | IC50 (IκB-α; Table 3): 25400 nM; IC50 (CDC2; Table 3): 10200 nM
CCCCCCNc1nc(N(C)CCc2ccc(O)c(O)c2)c2ncn(C(C)C)c2n1 | 33 µM | 32 µM | 15 µM | IC50 (CDC2; Table 3): 2600 nM
CC[C@H](CO)Nc1nc(NCc2ccc(O)c(O)c2)c2ncn(C(C)C)c2n1 | 8 µM | 9 µM | – | IC50 (IκB-α; Table 3): 1250 nM
CC[C@H](CO)Nc1nc(NC(CO)c2ccccc2)c2ncn(C(C)C)c2n1 (stereo partly shown) | 15 µM | 13.5 µM | 12 µM | IC50 (IκB-α; Table 3): 2150 nM
CC(C)n1cnc2c(N(C)CCc3ccc(O)c(O)c3)nc(NC[C@@H](C)O)nc21 | 13 µM | 14 µM | 7 µM | –
CC(C)n1cnc2c(NC(CO)c3ccccc3)nc(NC[C@@H](C)O)nc21 (stereo partly shown) | 70 µM | 74.6 µM | 23 µM | –
CC[C@@H](CO)Nc1nc(N(C)CCc2ccc(O)c(O)c2)c2ncn(C(C)C)c2n1 | 36 µM | 34 µM | 1.8 µM | –
CC[C@@H](CO)Nc1nc(NC(CO)c2ccccc2)c2ncn(C(C)C)c2n1 (stereo partly shown) | 20 µM | 24 µM | 14 µM | –
CC(C)n1cnc2c(N(C)CCc3ccc(O)c(O)c3)nc(NC[C@H](C)O)nc21 | 43 µM | 40 µM | 8 µM | –
CC(C)n1cnc2c(NC(CO)c3ccccc3)nc(NC[C@H](C)O)nc21 (stereo partly shown) | 8 µM | 5.6 µM | 27 µM | –
CC(C)n1cnc2c(NC(CO)c3ccccc3)nc(NCCO)nc21 (racemic) | 18 µM | 19 µM | 38 µM | IC50 (CDC2; Table 3): 1400 nM
Cn1cnc2c(NC(CO)c3ccccc3)nc(NCCO)nc21 (racemic) | – | – | – | IC50 (IκB-α; Table 3): 13700 nM; IC50 (CDC2; Table 3): 5600 nM
CC(C)C(CO)Nc1nc(NCc2ccccc2)c2ncn(C(C)C)c2n1 (stereo not shown) [P30] | – | – | – | Effect (β-adrenergic receptors): inhibition; IC50 (β-adrenergic receptors; read-out: I50): 45 ± 5 µM
CC[C@@H](CO)Nc1nc(N[C@@H](CO)c2ccccc2)c2ncn(C(C)C)c2n1 [P38] | – | – | – | Effect (β-adrenergic receptors): inactive
CC(O)CNc1nc(NC(CO)c2ccccc2)c2ncn(C(C)C)c2n1 (stereo not shown) [P39] | – | – | – | Effect (β-adrenergic receptors): inactive
